Results as given in patent publication US12091402B2 (Avilar Therapeutics, Inc., priority 2021, dated 2024).
Where two headings read alike, the source gives them in different places. *1 amine or outer side, *2 acyl side, *3 side chain or, on linkers, in order; H or OH if unused. Where a SMILES comes first, the peptide text is derived from it. Bridges are numbered along the chain shown (N, C = ends). [ ]: non-standard residue; d: D form. The star is where a group is joined. X2 = O=C(CCOCC(COCCC(=O)NCCOCCOCCOCCOC[C@H]1OC[C@H](Nc2cncc(C(F)(F)F)n2)[C@@H](O)[C@H]1O)NCC(=O)*)NCCOCCOCCOCCOC[C@H]1OC[C@H](Nc2cncc(C(F)(F)F)n2)[C@@H](O)[C@H]1O; X1 = O=C([C@@H]1C[C@H](N[*:3])CN1[*:1])[*:2]

Key:
IgG = experiment: Affinity to IgG by surface plasmon resonance (SPR); type: binding
Experimental: Immobilization levels ranging from 1000-1300 resonance units (RU) are obtained. The running buffer is 10 mM HEPES, pH 7.4, 400 mM NaCl, 0.005% P20, […].

HepG2 cells = experiment: Cellular uptake assay of AF488-labeled antibody (HepG2); type: cell-based; details: HepG2 cells
Summary of the method: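 HepG2 cells given 100 nM AF488-labeled human IgG or DNP antibody plus serial dilutions of matching degrader (0.1% DMSO final), 6 h at 37° C. Methanol-fixed, DAPI-stained and imaged by high-content analysis. Value is the fraction of AF488-positive cells over total DAPI-counted cells.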

ASGPR = target: T1, ASGPR (Homo sapiens, UniProt P07306); experiment: Affinity to ASGPR by surface plasmon resonance (SPR)
T1 sequence (P07306 1-291): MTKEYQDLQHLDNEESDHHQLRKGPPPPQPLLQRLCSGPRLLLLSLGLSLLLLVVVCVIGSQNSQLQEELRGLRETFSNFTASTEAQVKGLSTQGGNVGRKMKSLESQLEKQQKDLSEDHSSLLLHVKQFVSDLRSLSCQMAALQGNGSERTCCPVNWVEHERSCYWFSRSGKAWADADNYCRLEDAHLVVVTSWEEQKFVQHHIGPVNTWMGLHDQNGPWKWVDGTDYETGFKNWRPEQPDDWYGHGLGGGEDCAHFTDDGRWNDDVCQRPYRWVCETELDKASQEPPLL

[1] = target: T2, ASGPR receptor on the cell surface (HepG2 cells) (Homo sapiens, UniProt P07306); experiment: Ternary complex formation assay (flow cytometry, HepG2); type: cell-based
T2 construct: host or cells: HepG2
T2 sequence (P07306 1-291): T1 sequence (P07306 1-291)
T2 sequence (P07307 1-311 partner): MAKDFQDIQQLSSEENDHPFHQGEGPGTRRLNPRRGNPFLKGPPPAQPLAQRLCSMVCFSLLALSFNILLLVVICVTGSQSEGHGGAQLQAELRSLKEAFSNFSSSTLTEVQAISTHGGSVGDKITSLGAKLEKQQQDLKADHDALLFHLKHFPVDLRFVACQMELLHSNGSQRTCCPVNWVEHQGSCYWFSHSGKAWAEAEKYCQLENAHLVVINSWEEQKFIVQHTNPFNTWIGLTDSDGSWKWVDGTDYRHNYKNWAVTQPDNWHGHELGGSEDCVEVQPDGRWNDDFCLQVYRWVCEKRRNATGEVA
Summary of the method: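 HepG2 cells (1×10^5/well) incubated 1 h at 4 °C with 100 nM AF488-labeled anti-human IgG plus serial IgG-based degrader, or 100 nM AF488 rabbit anti-DNP plus serial DNP-based degrader. After washing, cell-associated AF488 MFI read by flow cytometry; peak MFI marks optimal degrader concentration for ternary complex.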

[2] = 100 nM AF488-labeled antibody, 37° C. for 6 hours, class symbols, read-out: Uptake Assay EC50
[3] = Biacore 8K, 25° C., IgG on CM5 chip, read-out: IgG SPR Binding Kd

SMILES: CC(C)C[C@@H]1NC(=O)[C@H](Cc2c[nH]cn2)NC(=O)[C@H](Cc2c[nH]c3ccccc23)NC(=O)[C@H](C)NC(=O)[C@@H]2CSSC[C@H](NC(=O)[C@H](Cc3c[nH]c4ccccc34)NC(=O)[C@H](C(C)C)NC(=O)[C@H](CC(C)C)NC(=O)[C@H](CCC(=O)O)NC(=O)CNC1=O)C(=O)N[C@@H]([C@@H](C)O)C(=O)N1CCC[C@@H]1C(=O)N1C[C@@H](NC(=O)CCOCCOCCOCCOCCNC(=O)CCCc3cn(CCCCCC(=O)NC(COCCC(=O)NCCOCCOCCOCCOC[C@H]4OC[C@H](Nc5cncc(C(F)(F)F)n5)[C@@H](O)[C@H]4O)COCCC(=O)NCCOCCOCCOCCOC[C@H]4OC[C@H](Nc5cncc(C(F)(F)F)n5)[C@@H](O)[C@H]4O)nn3)C[C@H]1C(=O)N[C@@H](CC(=O)O)C(=O)N2 [Compound 4]
- Kd (IgG; SPR, read-out: IgG KD): < 100 nM
- EC50 (HepG2 cells; [2]): < 100 nM
- EC50 (HepG2 cells; read-out: Uptake EC50): < 100 nM
- Kd (ASGPR): < 100 nM
- EC50 [1]: < 100 nM
- EC50 ([1]; read-out: Ternary Complex EC50): < 100 nM

SMILES: CC(C)C[C@@H]1NC(=O)[C@H](Cc2cnc[nH]2)NC(=O)[C@H](Cc2c[nH]c3ccccc23)NC(=O)[C@H](C)NC(=O)[C@@H]2CSSC[C@H](NC(=O)[C@H](Cc3c[nH]c4ccccc34)NC(=O)[C@H](C(C)C)NC(=O)[C@H](CC(C)C)NC(=O)[C@H](CCC(=O)O)NC(=O)CNC1=O)C(=O)N[C@@H]([C@@H](C)O)C(=O)N1CCC[C@@H]1C(=O)N1C[C@@H](NC(=O)CCOCCNC(=O)CCCc3cn(C[C@@]45CO[C@@H](O4)[C@H](Nc4nc(Cl)ns4)[C@@H](O)[C@H]5O)nn3)C[C@H]1C(=O)N[C@@H](CC(=O)O)C(=O)N2 [Compound 7]
- Kd (IgG; [3]): < 100 nM
- EC50 (HepG2 cells; [2]): 100 to 500 nM
- Kd (ASGPR): < 100 nM
- EC50 [1]: < 100 nM

SMILES: CC(C)C[C@@H]1NC(=O)[C@H](Cc2c[nH]cn2)NC(=O)[C@H](Cc2c[nH]c3ccccc23)NC(=O)[C@H](C)NC(=O)[C@@H]2CSSC[C@H](NC(=O)[C@H](Cc3c[nH]c4ccccc34)NC(=O)[C@H](C(C)C)NC(=O)[C@H](CC(C)C)NC(=O)[C@H](CCC(=O)O)NC(=O)CNC1=O)C(=O)N[C@@H]([C@@H](C)O)C(=O)N1CCC[C@@H]1C(=O)N1C[C@@H](NC(=O)CCOCCOCCOCCOCCNC(=O)CCCc3cn(CCCCCC(=O)NC(COCCC(=O)NCCOCCOCCOCCOC[C@@]45CO[C@@H](O4)[C@H](NC(=O)C(F)(F)F)[C@@H](O)[C@H]5O)(COCCC(=O)NCCOCCOCCOCCOC[C@@]45CO[C@@H](O4)[C@H](NC(=O)C(F)(F)F)[C@@H](O)[C@H]5O)COCCC(=O)NCCOCCOCCOCCOC[C@@]45CO[C@@H](O4)[C@H](NC(=O)C(F)(F)F)[C@@H](O)[C@H]5O)nn3)C[C@H]1C(=O)N[C@@H](CC(=O)O)C(=O)N2 [Compound 95]
- Kd (IgG; SPR, read-out: IgG KD): < 100 nM
- EC50 (HepG2 cells; read-out: Uptake EC50): < 100 nM
- Kd (ASGPR): < 100 nM
- EC50 [1]: < 100 nM

SMILES: CC(C)C[C@@H]1NC(=O)[C@H](C)NC(=O)CNC(=O)[C@H](CC(C)C)NC(=O)[C@H](Cc2c[nH]cn2)NC(=O)[C@H](Cc2c[nH]c3ccccc23)NC(=O)[C@H](C)NC(=O)[C@@H]2CSSC[C@H](NC(=O)[C@H](Cc3c[nH]c4ccccc34)NC(=O)[C@H](C(C)C)NC1=O)C(=O)N[C@@H]([C@@H](C)O)C(=O)N1CCC[C@@H]1C(=O)N1C[C@@H](NC(=O)CNC(COCCC(=O)NCCOCCOCCOCCOC[C@H]3OC[C@H](Nc4cncc(C(F)(F)F)n4)[C@@H](O)[C@H]3O)COCCC(=O)NCCOCCOCCOCCOC[C@H]3OC[C@H](Nc4cncc(C(F)(F)F)n4)[C@@H](O)[C@H]3O)C[C@H]1C(=O)N[C@@H](CC(N)=O)C(=O)N2 [Compound 79] (cyclo(ALVWCT[dP][X1](X2)NCAWHLG); disulfide 5-10)
- Kd (IgG; SPR, read-out: IgG KD): < 100 nM
- EC50 (HepG2 cells; read-out: Uptake EC50): < 100 nM
- Kd (ASGPR): < 100 nM
- EC50 ([1]; TCF EC50, HepG2 cells, ternary complex formation): < 100 nM

SMILES: CC(=O)N[C@H]1[C@H](OCCOCCOCCOCCNC(=O)CCOCC(COCCC(=O)NCCOCCOCCOCCO[C@@H]2O[C@H](CO)[C@H](O)[C@H](O)[C@H]2NC(C)=O)(COCCC(=O)NCCOCCOCCOCCO[C@@H]2O[C@H](CO)[C@H](O)[C@H](O)[C@H]2NC(C)=O)NC(=O)CCCCCn2cc(CCCC(=O)NCCOCCOCCOCCOCCC(=O)N[C@H]3C[C@H]4C(=O)N[C@@H](CC(=O)O)C(=O)N[C@H]5CSSC[C@H](NC(=O)[C@H](Cc6c[nH]c7ccccc67)NC(=O)[C@H](C(C)C)NC(=O)[C@H](CC(C)C)NC(=O)[C@H](CCC(=O)O)NC(=O)CNC(=O)[C@H](CC(C)C)NC(=O)[C@H](Cc6c[nH]cn6)NC(=O)[C@H](Cc6c[nH]c7ccccc67)NC(=O)[C@H](C)NC5=O)C(=O)N[C@@H]([C@@H](C)O)C(=O)N5CCC[C@@H]5C(=O)N4C3)nn2)O[C@H](CO)[C@H](O)[C@@H]1O [Compound 85]
- Kd (IgG; SPR, read-out: IgG KD): < 100 nM
- EC50 (HepG2 cells; read-out: Uptake EC50): > 1000 nM
- Kd (ASGPR): 500 to 1000 nM
- EC50 [1]: > 1000 nM

SMILES: CC(C)C[C@@H]1NC(=O)[C@H](Cc2cnc[nH]2)NC(=O)[C@H](Cc2c[nH]c3ccccc23)NC(=O)[C@H](C)NC(=O)[C@@H]2CSSC[C@H](NC(=O)[C@H](Cc3c[nH]c4ccccc34)NC(=O)[C@H](C(C)C)NC(=O)[C@H](CC(C)C)NC(=O)[C@H](CCC(=O)O)NC(=O)CNC1=O)C(=O)N[C@@H]([C@@H](C)O)C(=O)N1CCC[C@@H]1C(=O)N1C[C@@H](NC(=O)c3ccc(-c4ccc(C(=O)NC[C@H]5OC[C@H](Nc6cncc(C(F)(F)F)n6)[C@@H](O)[C@H]5O)cc4)cc3)C[C@H]1C(=O)N[C@@H](CC(=O)O)C(=O)N2 [Compound 72]
- Kd (IgG; SPR, read-out: IgG KD): < 100 nM
- EC50 (HepG2 cells; read-out: Uptake EC50): < 100 nM
- Kd (ASGPR): < 100 nM
- EC50 ([1]; HepG2 cells, ternary complex formation, read-out: TCF EC50): 500 to 1000 nM

SMILES: CC(C)C[C@@H]1NC(=O)[C@H](Cc2cnc[nH]2)NC(=O)[C@H](Cc2c[nH]c3ccccc23)NC(=O)[C@H](C)NC(=O)[C@@H]2CSSC[C@H](NC(=O)[C@H](Cc3c[nH]c4ccccc34)NC(=O)[C@H](C(C)C)NC(=O)[C@H](CC(C)C)NC(=O)[C@H](CCC(=O)O)NC(=O)CNC1=O)C(=O)N[C@@H]([C@@H](C)O)C(=O)N1CCC[C@@H]1C(=O)N1C[C@@H](NC(=O)CCCc3cn(CCCCCC(=O)NC(COCCC(=O)NCCOCCOCCOCCOC[C@H]4OC[C@H](Nc5cncc(C(F)(F)F)n5)[C@@H](O)[C@H]4O)COCCC(=O)NCCOCCOCCOCCOC[C@H]4OC[C@H](Nc5cncc(C(F)(F)F)n5)[C@@H](O)[C@H]4O)nn3)C[C@H]1C(=O)N[C@@H](CC(=O)O)C(=O)N2 [Compound 52]
- Kd (IgG; [3]): < 100 nM
- EC50 (HepG2 cells; [2]): < 100 nM
- EC50 ([1]; HepG2 cells, 100 nM AF488-labeled antibody, 1 hour at 4° C., class symbols, read-out: Ternary Complex EC50): < 100 nM

SMILES: CC(C)C[C@@H]1NC(=O)[C@H](Cc2c[nH]cn2)NC(=O)[C@H](Cc2c[nH]c3ccccc23)NC(=O)[C@H](C)NC(=O)[C@@H]2CSSC[C@H](NC(=O)[C@H](Cc3c[nH]c4ccccc34)NC(=O)[C@H](C(C)C)NC(=O)[C@H](CC(C)C)NC(=O)[C@H](CCC(=O)O)NC(=O)CNC1=O)C(=O)N[C@@H]([C@@H](C)O)C(=O)N1CCC[C@@H]1C(=O)N1C[C@@H](NC(=O)COCCOCC(=O)NC(COCCC(=O)NCCOCCOCCOCCOC[C@H]3OC[C@H](Nc4cncc(C(F)(F)F)n4)[C@@H](O)[C@H]3O)COCCC(=O)NCCOCCOCCOCCOC[C@H]3OC[C@H](Nc4cncc(C(F)(F)F)n4)[C@@H](O)[C@H]3O)C[C@H]1C(=O)N[C@@H](CC(=O)O)C(=O)N2 [Compound 41]
- Kd (IgG; [3]): < 100 nM
- EC50 (HepG2 cells; [2]): < 100 nM
- EC50 [1]: < 100 nM
